test system: Aβ42 production; experiment: Quantification of Aβ peptide in culture of neurons from rat fetus brain (Aβ ELISA); assay type: cell-based; details: Rattus norvegicus, Neuron, 72 h, rat primary neuronal culture (embryonic day 18 Wistar rat cerebral cortex); cultured three days after addition of compound; Aβx-42 ELISA of the medium; read-out: Aβ42 production reducing effect IC50
Description: Quantification of Aβ Peptide in Culture of Neurons from Rat Fetus Brain
(1) Rat Primary Neuronal Culture
Primary neuronal cultures were prepared from the cerebral cortex of embryonic day 18 Wistar rats (Charles River Japan, Yokohama, Japan). Specifically, the embryos were aseptically removed from pregnant rats under ether anesthesia. The brain was isolated from the embryo and immersed in an ice-cold L-15 medium (Invitrogen Corp. Cat #11415-064, Carlsbad, Calif., USA, or SIGMA L1518, for example). The cerebral cortex was collected from the isolated brain under a stereoscopic microscope. The cerebral cortex fragments collected were enzymatically treated in an enzyme solution containing 0.25% trypsin (Invitrogen Corp. Cat #15050-065, Carlsbad, Calif., USA) and 0.01% DNase (Sigma D5025, St. Louis, Mo., USA) at 37° C. for 30 minutes to disperse the cells. Here, the enzymatic reaction was stopped by adding inactivated horse serum to the solution. The enzymatically treated solution was centrifuged at 1,500 rpm for five minutes to remove the supernatant. 5 to 10 ml of a medium was added to the resulting cell mass. Neurobasal medium (Invitrogen Corp. Cat #21103-049, Carlsbad, Calif., USA) supplemented with 2% B27 supplement (Invitrogen Corp. Cat #17504-044, Carlsbad, Calif., USA), 25 μM 2-mercaptoethanol (2-ME, WAKO Cat #139-06861, Osaka, Japan), 0.5 mM L-glutamine (Invitrogen Corp. Cat #25030-081, Carlsbad, Calif., USA), and Antibiotics-Antimycotics (Invitrogen Corp. Cat #15240-062, Carlsbad, Calif., USA) was used as the medium (Neurobasal/B27/2-ME). However, the above Neurobasal medium not supplemented with 2-ME (Neurobasal/B27) was used for the assay. The cells were redispersed by mild pipetting of the cell mass to which the medium was added. The cell dispersion was filtered through a 40-μm nylon mesh (Cell Strainer, Cat #35-2340, Becton Dickinson Labware, Franklin Lakes, N.J., USA) to remove the remaining cell mass, and thus a neuronal cell suspension was obtained. The neuronal cell suspension was diluted with the medium and then plated in a volume of 100 μl/well at an initial cell density of 5×10^5 cells/cm^2 in a 96-well polystyrene culture plate pre-coated with poly-L or D-lysine (Falcon Cat #35-3075, Becton Dickinson Labware, Franklin Lakes, N.J., USA coated with poly-L-lysine using the method shown below, or BIOCOAT™ cell environments Poly-D-lysine cell ware 96-well plate, Cat #35-6461, Becton Dickinson Labware, Franklin Lakes, N.J., USA). Poly-L-lysine coating was carried out as follows. 100 μg/ml of a poly-L-lysine (SIGMA P2636, St. Louis, Mo., USA) solution was aseptically prepared with a 0.15 M borate buffer (pH 8.5). 100 μl/well of the solution was added to the 96-well polystyrene culture plate and incubated at room temperature for one or more hours or at 4° C. overnight or longer. The coated 96-well polystyrene culture plate was washed with sterile water four or more times, and then dried or rinsed with, for example, sterile PBS or medium, and used for cell plating. The plated cells were cultured in the culture plate at 37° C. in 5% CO2-95% air for one day. Then, the total amount of the medium was replaced with a fresh Neurobasal™/B27/2-ME medium, and then the cells were cultured for further three days.
The drug was added to the culture plate on Day 4 of culture as follows. The total amount of the medium was removed from the wells, and 180 μl/well of Neurobasal medium not containing 2-ME and containing 2% B-27 (Neurobasal/B27) was added thereto. A solution of the test compound in dimethyl sulfoxide (hereinafter abbreviated as DMSO) was diluted with Neurobasal/B27 at 10-fold of the final concentration. 20 μl/well of the dilution was added to and sufficiently mixed with the medium. The final DMSO concentration was 1% or less. Only DMSO was added to the control group.
The cells were cultured for three days after addition of the compound, and the total amount of the medium was collected. […]

SMILES	IC50 [nM]
COc1nc(/C=C/c2nc3n(n2)CCC[C@H]3c2ccccc2)ccc1-n1cnc(C)c1 (single isomer, unassigned) [Example 207, (−)-2-{(E)-2-[6-methoxy-5-(4-methyl-1H-imidazol-1-yl)pyridin-2-yl]vinyl}-8-phenyl-5,6,7,8-tetrahydro-[1,2,4]triazolo[1,5-a]pyridine]	28
CCCCC(=O)c1ccc(C2CCCn3nc(/C=C/c4ccc(-n5cnc(C)c5)c(OC)c4)nc32)cc1 (single isomer, unassigned; (-)) [Example 3, (−)-1-{4-{2-{(E)-2-[3-methoxy-4-(4-methyl-1H-imidazol-1-yl)phenyl]vinyl}-5,6,7,8-tetrahydro[1,2,4]triazolo[1,5-a]pyridin-8-yl}phenyl}pentan-1-one]	48
COc1nc(/C=C/c2nc3n(n2)CCC[C@@H]3c2ccc(F)c(Cl)c2)ccc1-n1cnc(C)c1 (single isomer, unassigned) [Example 175, (−)-8-(3-chloro-4-fluorophenyl)-2-{(E)-2-[6-methoxy-5-(4-methyl-1H-imidazol-1-yl)pyridin-2-yl]vinyl}-5,6,7,8-tetrahydro-[1,2,4]triazolo[1,5-a]pyridine]	38
COc1cc(/C=C/c2nc3n(n2)CCC[C@]3(O)c2ccc(C(C)C)cc2)ccc1-n1cnc(C)c1 (single isomer, unassigned) [Example 55, (−)-8-(4-isopropylphenyl)-2-{(E)-2-[3-methoxy-4-(4-methyl-1H-imidazol-1-yl)phenyl]vinyl}-5,6,7,8-tetrahydro[1,2,4]triazolo[1,5-a]pyridin-8-ol]	28
COc1cc(/C=C/c2nc3n(n2)CCC[C@@H]3[C@H]2CCCN2Cc2ccccc2)ccc1-n1cnc(C)c1 (single isomer, unassigned) [Example 133, (−)-8-(1-benzylpyrrolidin-2-yl)-2-{(E)-2-[3-methoxy-4-(4-methyl-1H-imidazol-1-yl)phenyl]vinyl}-5,6,7,8-tetrahydro[1,2,4]triazolo[1,5-a]pyridine]	65
COc1nc(/C=C/c2nc3n(n2)CCCC3c2cc(F)cc(F)c2)ccc1-n1cnc(C)c1 (single isomer, unassigned; (-)) [Example 337, (−)-8-(3,5-difluorophenyl)-2-{(E)-2-[6-methoxy-5-(4-methyl-1H-imidazol-1-yl)pyridin-2-yl]vinyl}-5,6,7,8-tetrahydro[1,2,4]triazolo[1,5-a]pyridine]	13
COc1nc(/C=C/c2nc3n(n2)CCC3c2ccc(F)c(F)c2)ccc1-n1cnc(C)c1 (stereo not shown) [Example 380, 7-(3,4-difluorophenyl)-2-{(E)-2-[6-methoxy-5-(4-methyl-1H-imidazol-1-yl)pyridin-2-yl]vinyl}-6,7-dihydro-5H-pyrrolo[1,2-b][1,2,4]triazole]	29
COc1nc(/C=C/c2nc3n(n2)CCC3c2ccccc2)ccc1-n1cnc(C)c1 (stereo not shown) [Example 376, 2-{(E)-2-[6-methoxy-5-(4-methyl-1H-imidazol-1-yl)pyridin-2-yl]vinyl}-7-phenyl-6,7-dihydro-5H-pyrrolo[1,2-b][1,2,4]triazole]	28
COc1cc(/C=C/c2nc3n(n2)CCCC3(O)c2cc(F)cc(F)c2)ccc1-n1cnc(C)c1 (single isomer, unassigned; (+)) [Example 80, (+)-8-(3,5-difluorophenyl)-2-{(E)-2-[3-methoxy-4-(4-methyl-1H-imidazol-1-yl)phenyl]vinyl}-5,6,7,8-tetrahydro[1,2,4]triazolo[1,5-a]pyridin-8-ol]	29
COc1cc(/C=C/c2nc3n(n2)CCCC3c2cccc(F)c2)ccc1-n1cnc(C)c1 (single isomer, unassigned; (-)) [Example 2, (−)-8-(3-fluorophenyl)-2-{(E)-2-[3-methoxy-4-(4-methyl-1H-imidazol-1-yl)phenyl]vinyl}-5,6,7,8-tetrahydro[1,2,4]triazolo[1,5-a]pyridine]	28
COc1cc(/C=C/c2nc3n(n2)CCCC3(O)c2ccccc2F)ccc1-n1cnc(C)c1 (single isomer, unassigned) [Example 59, (−)-8-(2-fluorophenyl)-2-{(E)-2-[3-methoxy-4-(4-methyl-1H-imidazol-1-yl)phenyl]vinyl}-5,6,7,8-tetrahydro-[1,2,4]triazolo[1,5-a]pyridin-8-ol]	45
COc1nc(/C=C/c2nc3n(n2)C(C)CCC3c2ccccc2C(F)(F)F)ccc1-n1cnc(C)c1 (stereo not shown) [Example 361, 2-{(E)-2-[6-methoxy-5-(4-methyl-1H-imidazol-1-yl)pyridin-2-yl]vinyl}-5-methyl-8-(2-trifluoromethylphenyl)-5,6,7,8-tetrahydro-[1,2,4]triazolo[1,5-a]pyridine]	12
COc1nc(/C=C/c2nc3n(n2)CCC[C@H]3c2cccc(F)c2F)ccc1-n1cnc(C)c1 (single isomer, unassigned) [Example 280, (−)-8-(2,3-difluorophenyl)-2-{(E)-2-[6-methoxy-5-(4-methyl-1H-imidazol-1-yl)pyridin-2-yl]vinyl}-5,6,7,8-tetrahydro-[1,2,4]triazolo[1,5-a]pyridine]	18
COc1cc(/C=C/c2nc3n(n2)CCC/C3=C\c2ccccc2)ccc1-n1cnc(C)c1 [Example 12, 2-{(E)-2-[3-methoxy-4-(4-methyl-1H-imidazol-1-yl)phenyl]vinyl}-8-[1-phenylmethy-(E)-lidene]-5,6,7,8-tetrahydro[1,2,4]triazolo[1,5-a]pyridine]	135
COc1cc(/C=C/c2nc3n(n2)CC[C@@H](C)[C@@H]3c2ccc(F)cc2)ccc1-n1cnc(C)c1 [Example 102, (7R,8R)-8-(4-fluorophenyl)-2-{(E)-2-[3-methoxy-4-(4-methyl-1H-imidazol-1-yl)phenyl]vinyl}-7-methyl-5,6,7,8-tetrahydro-[1,2,4]triazolo[1,5-a]pyridine]	20
COc1nc(/C=C/c2nc3n(n2)CCOC3c2ccccc2C(F)(F)F)ccc1-n1cnc(C)c1 (stereo not shown) [Example 368, 2-{(E)-2-[6-methoxy-5-(4-methyl-1H-imidazol-1-yl)pyridin-2-yl]vinyl}-8-(2-trifluoromethylphenyl)-5,6-dihydro-8H-[1,2,4]triazolo[5,1-c][1,4]oxazine]	25
COc1cc(/C=C/c2nc3n(n2)CCCC3c2ccc(SC)cc2)ccc1-n1cnc(C)c1 (single isomer, unassigned; (-)) [Example 7, (−)-2-{(E)-2-[3-methoxy-4-(4-methyl-1H-imidazol-1-yl)phenyl]vinyl}-8-(4-methylsulfanylphenyl)-5,6,7,8-tetrahydro-[1,2,4]triazolo[1,5-a]pyridine]	30
COc1cc(/C=C/c2nc3n(n2)CCCC3c2cccs2)ccc1-n1cnc(C)c1 (single isomer, unassigned; (-)) [Example 10, (−)-2-{(E)-2-[3-methoxy-4-(4-methyl-1H-imidazol-1-yl)phenyl]vinyl}-8-thiophen-2-yl-5,6,7,8-tetrahydro[1,2,4]triazolo[1,5-a]pyridine]	33
CCCCC(O)c1ccc([C@H]2CCCn3nc(/C=C/c4ccc(-n5cnc(C)c5)c(OC)c4)nc32)cc1 (single isomer, unassigned) [Example 19, 1-{4-{2-{(E)-2-[3-methoxy-4-(4-methyl-1H-imidazol-1-yl)phenyl]vinyl}-5,6,7,8-tetrahydro[1,2,4]triazolo[1,5-a]pyridin-8-yl}phenyl}pentan-1-ol]	43

Reference: patent US7935815B2, “Imidazoyl pyridine compounds and salts thereof” (Eisai R&D Management Co., Ltd., priority 2007, dated 2011)
